Consider 4 compounds from patent US7205299B2, “Indole derivatives having an apoptosis-inducing effect” (Zentaris GmbH, priority 2003, dated 2007).

Converted amounts (≈) assume the structure as drawn.

For one test, the system named is murine cell line P388. The test is described as follows: XTT proliferation assay, P388. The format is cell-based. As to conditions: Mus musculus. An excerpt: (§1) For further characterization, substances 1, 2, 4 and 11 were investigated with regard to their effect on mulitdrug-resistance cell lines as compared with that on nonresistant wild-type cell lines.
(§2) The cell lines which were investigated are the murine cell line L1210, the acute myeloid leukemia cell line LT12 and the resistant lines L1210/mdr and LT12/mdr. The murine cell line P388 (methylcholanthrene-induced lymphoid neoplasm) and doxorubicin-resistant P388 were also included as test systems.
(§3) The test results are summarized in Table 2 below: • XTT proliferation assay, EC50 in μg/ml

Test [1] concerns ovarian adenocarcinoma cell line SKOV-3. Kind of test: XTT proliferation assay, SKOV-3. The test is classed as cell-based, human. The text has this: (§4) The antiproliferative activity of substances 1, 2, 4, 9, 11, 12, 13 and 15 was investigated in a proliferation test performed on established tumor cell lines (D. A. Scuderio et al. Cancer Res. 1988, 48, 4827–4833). The test which is used determines the cellular dehydrogenase activity and makes it possible to determine cell viability and determine cell number indirectly. The cell lines which are used are the human cervical carcinoma cell line KB/HeLa (ATCC CCL17), the ovarian adenocarcinoma cell line SKOV-3 (ATCC HTB77), the human glioblastoma cell line SF-268 (NCI 503138) and the lung carcinoma cell line NCI-H460 (NCI 503473).

Test [2] concerns lung carcinoma cell line NCI-H460. The test is described as follows: XTT proliferation assay, NCI-H460. The format is cell-based, human.
Excerpt: as §4
In general terms: Tetrazolium dyes change colour on reduction, which living cells bring about.

Test [3] relates to doxorubicin-resistant P388. Kind of test: XTT proliferation assay, P388ADR. The format is cell-based, murine. As to conditions: Mus musculus.
Excerpt: as §1, §2, §3

The test system of the next test is resistant line LT12/mdr. The test is described as follows: XTT proliferation assay, LT12/mdr. The test is classed as cell-based. Conditions: Rattus norvegicus, LT12mdr.
Excerpt: as §1, §2, §3

The subject of test [4] is human cervical carcinoma cell line KB/HeLa. The test is described as follows: XTT proliferation assay, KB/HeLa. The test is classed as cell-based.
Excerpt: as §4

The test system of test [5] is resistant line L1210/mdr (L1210VCR). The test is described as follows: XTT proliferation assay, L1210VCR. The format is cell-based, murine. Conditions: Mus musculus.
Excerpt: as §1, §2, §3

The target in the next test is bovine tubulin (Bos taurus, UniProt P81947+Q6B856). Kind of test: Inhibition of tubulin polymerization. The test is classed as biochemical. Conditions: summary of Table 3. As for the experimental part:
Substances 1, 4, 9, 11, 12, 13 and 15 were tested for their ability to inhibit the polymerization of bovine tubulin in an in-vitro test (D. M. Bollag et al. Cancer Res. 1995, 55, 2325–2333). This test uses-tubulin which has been purified by cycles of polymerization and depolymerization and which is caused to polymerize by adding GTP and heating it. Table 3 gives the EC50 values causing inhibition of the polymerization of tubulin containing 30% associated proteins (MPAs).

Test [6] has as its system human glioblastoma cell line SF-268. Kind of test: XTT proliferation assay, SF-268. The test is classed as cell-based.
Excerpt: as §4

In test [7] the test system is acute myeloid leukemia cell line LT12. The test is described as follows: XTT proliferation assay, LT12. The test is classed as cell-based. Conditions: Rattus norvegicus.
Excerpt: as §1, §2, §3

For another test, the system named is KB/HeLa cells. Kind of test: Cell cycle analysis (G2/M arrest). As to conditions: Homo sapiens, 24 hours, 37° C., read-out: EC50 (50% of cells in G2/M). The format is cell-based. As for the experimental part:
For the cell cycle analysis, KB/HeLa cells were treated with different concentrations of the test substances (0.1–1000 nM) at 37° C. for 24 hours.
The percentage of cells arrested in the G2/M phase of the cell cycle after having been treated with reference substances or selected test substances is shown in Table 4 below. The results were analyzed using special analytical software (ModFit™).

The test system of the next test is murine cell line L1210. The test is described as follows: XTT proliferation assay, L1210. The format is cell-based. As to conditions: Mus musculus.
Excerpt: as §1, §2, §3

Test [8] has as its target human DNA topoisomerase II (Homo sapiens, UniProt P11388). The test is described as follows: kDNA assay for testing topoisomerase II activity. As to conditions: compound 1 at 100, 31.6 and 10 μM; reference compounds 100 μM. The format is biochemical. As for the experimental part: In this assay, which was described by P. Arimondo (Anti-Cancer Drug Design 2000, 15(6), 413–421), kDNA is treated with human DNA topoisomerase II in the absence or presence of the test compounds. In the assay, compound 1 according to the invention was tested at three different concentrations (100, 31.6 and 10 μM). A positive control and the reference compounds m-amsacrine (m-amsa), paclitaxel (Taxol) and vincristine, with the concentration in each case being 100 μM, were used for comparison.
2 μL of 10× assay buffer, 1 μL of kDNA (200 ng), 0.5 μL of human topoisomerase II (1 unit) and 15.5 μL of H2O are added by pipette to 1 μL of initially introduced test substance (20 times concentrated in 100% DMSO) and the reagents are mixed.
The reaction assay samples are placed in a heating block which has been preheated to 37° C. and incubated at 37° C. for 10 min. The incubation is stopped after adding 4 μL of 5× Stop buffer and the substance is subsequently extracted with CIA. After that, 20 μL of the supernatant are loaded onto a 1% agarose gel containing 0.25 μg of ethidium bromide/mL and separated at 100 V for 1 h. Finally, the gel is photographed under UV excitation (see FIG. 1). The inhibition of the decatenation of kDNA is quantified using the GelPro® Analyzer Software (see FIG. 2).

The target in another test is human topoisomerase II (Homo sapiens, UniProt P11388). The test is described as follows: pRYG relaxation assay for testing topoisomerase II activity. The format is biochemical. Conditions: compound 1 at 100, 31.6 and 10 μM; reference compounds 316 and 100 μM. As for the experimental part:
In the assay, the compound 1 according to the invention was tested at three different concentrations (100, 31.6 and 10 μM). The reference compounds m-amsacrine, paclitaxel (Taxol) and vincristine were used, at concentrations of 316 and 100 μM, for comparison.
2 μL of 10× assay buffer, 0.5 μL of pRYG DNA (125 ng), 0.5 μL of human topoisomerase II (1 unit) and 16 μL of H2O are added by pipette to 1 μL of initially introduced test substance (20 times concentrated in 100% DMSO) and the reagents are mixed. The reaction assay samples are placed in a heating block which has been preheated to 37° C. and incubated at 37° C. for 30 min. The incubation is stopped after adding 4 μL of 5× Stop buffer. After that, 10 μL of the assay sample are loaded onto a 1.2% agarose gel containing 0.25 μg of ethidium bromide/mL and separated at 100 V for 2.5 h. Finally, the gel is photographed under UV excitation (see FIG. 3). The inhibition of pRYG relaxation is quantified using the GelPro® Analyzer Software (see FIG. 4).

bovine tubulin, sequence (P81947 whole entry): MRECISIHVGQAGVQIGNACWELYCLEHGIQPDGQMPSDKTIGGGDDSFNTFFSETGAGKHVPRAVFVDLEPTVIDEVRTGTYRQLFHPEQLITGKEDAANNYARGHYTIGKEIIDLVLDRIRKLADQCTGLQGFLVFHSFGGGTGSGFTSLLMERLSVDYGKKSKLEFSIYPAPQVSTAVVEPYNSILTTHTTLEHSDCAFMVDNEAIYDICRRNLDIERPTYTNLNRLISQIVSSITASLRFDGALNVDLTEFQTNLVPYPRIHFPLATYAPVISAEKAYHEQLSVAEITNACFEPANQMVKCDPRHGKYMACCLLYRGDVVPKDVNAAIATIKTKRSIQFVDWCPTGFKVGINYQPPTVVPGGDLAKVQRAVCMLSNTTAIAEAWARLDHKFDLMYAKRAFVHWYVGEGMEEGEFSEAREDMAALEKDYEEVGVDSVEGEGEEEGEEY
bovine tubulin, sequence (Q6B856 whole entry): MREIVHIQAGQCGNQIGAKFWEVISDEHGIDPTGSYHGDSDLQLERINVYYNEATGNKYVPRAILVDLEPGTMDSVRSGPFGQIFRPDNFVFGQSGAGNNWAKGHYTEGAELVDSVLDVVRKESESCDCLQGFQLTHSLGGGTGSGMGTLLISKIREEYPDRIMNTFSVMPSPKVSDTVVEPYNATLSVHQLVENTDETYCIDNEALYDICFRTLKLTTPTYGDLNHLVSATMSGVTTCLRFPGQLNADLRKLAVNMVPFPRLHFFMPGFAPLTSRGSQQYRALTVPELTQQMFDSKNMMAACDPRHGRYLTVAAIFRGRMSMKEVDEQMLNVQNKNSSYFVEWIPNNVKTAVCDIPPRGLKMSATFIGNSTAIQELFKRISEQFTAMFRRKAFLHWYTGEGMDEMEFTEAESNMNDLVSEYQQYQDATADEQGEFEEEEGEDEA
human topoisomerase II, sequence (P11388 whole entry): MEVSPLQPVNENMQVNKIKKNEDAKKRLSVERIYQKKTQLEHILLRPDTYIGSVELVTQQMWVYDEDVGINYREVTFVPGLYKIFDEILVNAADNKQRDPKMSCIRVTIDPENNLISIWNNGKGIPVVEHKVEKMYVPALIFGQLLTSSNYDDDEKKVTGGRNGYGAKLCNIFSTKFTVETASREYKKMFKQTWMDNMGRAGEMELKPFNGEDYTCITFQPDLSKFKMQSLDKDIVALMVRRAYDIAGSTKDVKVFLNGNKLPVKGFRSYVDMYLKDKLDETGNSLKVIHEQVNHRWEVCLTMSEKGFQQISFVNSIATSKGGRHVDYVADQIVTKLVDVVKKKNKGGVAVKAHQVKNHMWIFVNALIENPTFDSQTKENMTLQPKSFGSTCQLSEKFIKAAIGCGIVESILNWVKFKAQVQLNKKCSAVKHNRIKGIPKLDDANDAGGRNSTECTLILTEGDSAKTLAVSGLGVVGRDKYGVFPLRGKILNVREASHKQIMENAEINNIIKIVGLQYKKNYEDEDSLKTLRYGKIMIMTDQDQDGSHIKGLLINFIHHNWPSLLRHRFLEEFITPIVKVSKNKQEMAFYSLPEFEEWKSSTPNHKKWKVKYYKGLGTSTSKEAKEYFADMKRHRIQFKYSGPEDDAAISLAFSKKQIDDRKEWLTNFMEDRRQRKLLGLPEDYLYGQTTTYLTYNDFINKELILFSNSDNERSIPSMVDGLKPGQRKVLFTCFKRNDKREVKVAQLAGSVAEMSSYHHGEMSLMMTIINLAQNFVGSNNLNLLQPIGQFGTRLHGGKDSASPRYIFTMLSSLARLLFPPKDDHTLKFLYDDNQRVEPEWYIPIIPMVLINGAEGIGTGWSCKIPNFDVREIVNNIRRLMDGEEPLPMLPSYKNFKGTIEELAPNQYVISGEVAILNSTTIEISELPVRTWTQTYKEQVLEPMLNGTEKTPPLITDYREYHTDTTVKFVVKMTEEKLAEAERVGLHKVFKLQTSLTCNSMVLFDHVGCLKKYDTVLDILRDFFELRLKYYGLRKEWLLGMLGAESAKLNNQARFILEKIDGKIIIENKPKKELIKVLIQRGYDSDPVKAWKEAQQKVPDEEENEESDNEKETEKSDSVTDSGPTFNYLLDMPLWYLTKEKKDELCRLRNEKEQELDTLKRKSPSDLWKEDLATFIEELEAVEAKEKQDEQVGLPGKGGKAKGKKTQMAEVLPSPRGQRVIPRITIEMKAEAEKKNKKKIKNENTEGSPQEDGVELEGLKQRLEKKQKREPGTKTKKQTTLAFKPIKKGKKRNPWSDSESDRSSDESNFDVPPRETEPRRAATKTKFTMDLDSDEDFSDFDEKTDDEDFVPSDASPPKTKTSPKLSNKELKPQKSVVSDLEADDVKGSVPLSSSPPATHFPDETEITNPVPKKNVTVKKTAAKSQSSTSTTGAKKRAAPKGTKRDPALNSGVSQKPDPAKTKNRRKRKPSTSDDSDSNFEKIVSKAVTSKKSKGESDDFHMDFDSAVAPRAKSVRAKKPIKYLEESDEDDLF
human DNA topoisomerase II, sequence (P11388 whole entry): as above

Take `O=C(Nc1ccc2ncccc2c1)C(=S)c1cn(Cc2ccc(Cl)cc2)c2ccccc12` [Compound 11, 2-[1-(4-chlorobenzyl)-1H-indol-3-yl]-N-quinolin-6-yl-2-thioxoacetamide]: the EC50 in the test with murine cell line P388 is 0.018 µg/mL (≈ 0.0395 µM); in [1] (Homo sapiens, SK-OV-3, read-out: XTT proliferation assay, EC50, SKOV3), 0.029 µg/mL (≈ 0.0636 µM); in test [2] (Homo sapiens) it was 0.057 µg/mL (≈ 0.125 µM); in test [3], 0.051 µg/mL (≈ 0.112 µM); in the test with resistant line LT12/mdr it was 0.054 µg/mL (≈ 0.118 µM); in [4] (Homo sapiens, HeLa), 0.036 µg/mL (≈ 0.079 µM). For the same compound, the EC50 is 0.067 µg/mL (≈ 0.147 µM) in [5]; 0.036 µg/mL (≈ 0.079 µM) in [6] (Homo sapiens); 0.023 µg/mL (≈ 0.0504 µM) in [7]; 41.8 nM in the test on KB/HeLa cells; 0.052 µg/mL (≈ 0.114 µM) in the test on murine cell line L1210. Moreover, the “inhibitory effect on tubulin polymerization (in words)” value against bovine tubulin is “very potent inhibitory effect”.

In the case of `O=C(Nc1cccc2cnccc12)C(=O)c1cn(Cc2ccc(Cl)cc2)c2ccccc12` [Compound 13, 2-[l-(4-chlorobenzyl)-1H-indol-3-yl]-N-isoquinolin-5-yl-2-oxoacetamide], the “XTT proliferation assay, EC50, SKOV3” value in test [1] (SKOV3) is above 3.16 µg/mL. Also, the “XTT proliferation assay, EC50, NCI-H460” value in test [2] is above 3.16 µg/mL. The “XTT proliferation assay, EC50, KB/HeLa” value in [4] (KB/HeLa) was above 3.16 µg/mL. The “inhibitory effect on tubulin polymerization (in words)” value against bovine tubulin is reported as “do not exert any effect”. Further, the “XTT proliferation assay, EC50, SF-268” value in [6] is above 3.16 µg/mL.

With `O=C1c2c(O)ccc(O)c2C(=O)c2c(NCCNCCO)ccc(NCCNCCO)c21` [Mitoxantrone, mitoxantrone], the EC50 amounted to 0.053 µg/mL (≈ 0.119 µM) in the test with murine cell line P388; 0.608 µg/mL (≈ 1.37 µM) in test [3]; 3.1 µg/mL (≈ 6.97 µM) in the test with resistant line LT12/mdr; 2.1 µg/mL (≈ 4.72 µM) in test [5]; 0.006 µg/mL (≈ 0.0135 µM) in test [7]; 25.3 nM in the test with KB/HeLa cells. Also, in the test with murine cell line L1210, the EC50 is 0.09 µg/mL (≈ 0.202 µM).

On to `CC(=O)O[C@H]1C(=O)[C@@]2(C)[C@H]([C@H](OC(=O)c3ccccc3)[C@]3(O)C[C@H](OC(=O)[C@H](O)[C@@H](NC(=O)c4ccccc4)c4ccccc4)C(C)=C1C3(C)C)[C@]1(OC(C)=O)CO[C@@H]1C[C@@H]2O` [Paclitaxel, paclitaxel], for which the EC50 with murine cell line P388 was 0.035 µg/mL (≈ 0.041 µM); in [3], above 3.16 µg/mL; in the test with resistant line LT12/mdr it was 0.34 µg/mL (≈ 0.398 µM); in test [5] it was above 3.16 µg/mL; in test [7], 0.005 µg/mL (≈ 0.00586 µM); in the test with KB/HeLa cells, 26.9 nM. In the test on murine cell line L1210, this compound yielded an EC50 of 0.048 µg/mL (≈ 0.0562 µM). Also, the “inhibition of topoisomerase II, kDNA decatenation” value in [8] is “neither paclitaxel nor vincristine was observed to have any inhibitory effects”. Further, on human topoisomerase II, the “inhibition of topoisomerase II, pRYG DNA relaxation” value is “neither paclitaxel nor vincristine was observed to have any inhibitory effects”.
